The solubility is the dissolved amount per volume that the medium holds. A word on the logP: it is the decadic logarithm of the partition coefficient of the neutral form, usually between octanol and water. A high value points to a more lipophilic compound.

The text below walks through data of patent US9545384B2, “Nanoparticles comprising drug, a non-ionizable cellulosic polymer and tocopheryl polyethylene glocol succinate” (Bend Research, Inc., priority 2007, dated 2017).

A short description of data set [1]: Solubility of drug in model fasted duodenal (MFD) solution. The format is physicochemical. The conditions noted are these: fassgf or other biorelevant.
For data set [2] the following is noted: for Observations: pH 6.5. The protocol: The polymer is a poorly aqueous soluble non-ionizable cellulosic polymer. […] An appropriate PBS solution is an aqueous solution comprising 20 mM sodium phosphate (Na2HPO4), 47 mM potassium phosphate (KH2PO4), 87 mM NaCl, and 0.2 mM KCl, adjusted to pH 6.5 with NaOH. A test to determine whether the polymer is insoluble may be performed as follows. The polymer is initially present in bulk powder form with average particle sizes of greater than about 1 micron. The polymer alone is administered at a concentration of 0.2 mg/mL to the PBS solution and stirred for approximately 1 hour at room temperature. Next, a nylon 0.45 μm filter is weighed, and the polymer solution is filtered. The filter is dried overnight at 40° C., and weighed the following morning. The amount of polymer dissolved is calculated from the amount of polymer added to the PBS solution minus the amount of polymer remaining on the filter (mg). […] These polymers were evaluated using the following procedure to determine their aqueous solubility. First, 0.2 mg/mL of the polymer is added to a PBS solution consisting of 20 mM Na2HPO4, 47 mM KH2PO4, 87 mM NaCl, and 0.2 mM KCl, adjusted to pH 6.5 with NaOH. The polymer is stirred in the PBS solution for approximately 1 hour at room temperature. Next, the polymer solution is filtered through a nylon 0.45 μm filter that had been weighed dry prior to filtration. The filter is dried overnight at 40° C., and weighed the following morning. The amount of soluble polymer is calculated from amount of polymer added to form the polymer solution minus the amount of polymer remaining on the filter.

Data set [3] can be described thus: Solubility of drug in water. In kind it is physicochemical.
A short description of a further data set: Log P. In kind it is physicochemical. The conditions noted are these: octanol/water. The text has this:
The first property of hydrophobic drugs is that they are extremely hydrophobic. Log P, defined as the base 10 logarithm of the ratio of the drug solubility in octanol to the drug solubility in water, is a widely accepted measure of hydrophobicity. By “extremely hydrophobic” is meant that the Log P value of the drug is at least 4.0, preferably at least 4.5, and most preferably at least 5.0. Log P may be measured experimentally or calculated using methods known in the art. When using a calculated value for Log P, the highest value calculated using any generally accepted method for calculating Log P is used. Calculated Log P values are often referred to by the calculation method, such as C log P, A log P, and M log P. The Log P may also be estimated using fragmentation methods, such as Crippen's fragmentation method (27 J. Chem. Inf. Comput. Sci. 21 (1987)); Viswanadhan's fragmentation method (29 J. Chem. Inf. Comput. Sci. 163 (1989)); or Broto's fragmentation method (19 Eur. J. Med. Chem.-Chim. Theor. 71 (1984). Preferably the Log P value is calculated by using the average value estimated using Crippen's, Viswanadhan's, and Broto's fragmentation methods.

Values after ≈ are worked out from the molar mass of the structure shown.

`Cc1ccc(-c2cc(C(F)(F)F)nn2-c2ccc(S(N)(=O)=O)cc2)cc1` [Drug 3, 4-[5-(4-methylphenyl)-3-(trifluoromethyl)-1H-pyrazol-1-yl]benzenesulfonamide, reference compound]: in data set [1], the solubility is around 40 µg/mL (≈ 105 µM). In the case of Cellulose Acetate, in data set [2], the “Soluble at pH 6.5” value stood at 0.03 mg/mL and the Observations entry is recorded as “Fine particle”.

For the molecule `Cc1onc(-c2ccccc2)c1-c1ccc(S(N)(=O)=O)cc1` [Drug 1, 4-(5-methyl-3-phenyl-4-isoxazolyl)benzenesulfonamide], the solubility in data set [3] was around 10 µg/mL (≈ 31.8 µM). The same molecule showed a log partition coefficient (logP) in “Log P” of around 3. In turn, `CC[C@@H]1C[C@H](N(Cc2cc(C(F)(F)F)cc(C(F)(F)F)c2)C(C)=O)c2cc(C(F)(F)F)ccc2N1C(=O)OC(C)C` [Drug 2, [2R,4S]-4-[acetyl-(3,5-bis-trifluoromethyl-benzyl)-amino]-2-ethyl-6-trifluoromethyl-3,4-dihydro-2H-quinoline-1-carboxylic acid isopropyl ester] came in with a solubility in data set [1] of around 11 µg/mL (≈ 18.4 µM).

As for `CCOC(=O)N1c2ccc(C(F)(F)F)cc2[C@@H](N(Cc2cc(C(F)(F)F)cc(C(F)(F)F)c2)C(=O)OC)C[C@H]1CC` [Torcetrapib, [2R,4S]4-[(3,5-bis-trifluoromethyl-benzyl)-methoxycarbonyl-amino]-2-ethyl-6-trifluoromethyl-3,4-dihydro-2H-quinoline-1-carboxylic acid ethyl ester], the solubility in data set [3] is below 0.1 µg/mL. On to Ethylcellulose, for which, in data set [2], the “Soluble at pH 6.5” value is below 0.001 mg/mL and the Observations entry is listed as “Fine particle”.
